Laboratory results published in article PMC11530802, “Evolution, structure, and drug-metabolizing activity of mammalian prenylcysteine oxidases” (The Journal of Biological Chemistry, 2024).

Target: T1, PCYOX1 (mammalian ancestor)
T1 construct: mammalian ancestor's PCYOX1 (26-502), without signal peptide, six histidine N-terminal tag
Assay: microscale thermophoresis; GC-MS detection of farnesal
Assay type: binding, synthetic construct

Kd: 12 ± 0.2 µM
Structure (SMILES): CC(C)=CCC/C(C)=C/CC/C(C)=C/CSc1ccccc1C(=O)O [salirasib]
